In the supplement of paper PMC6045584:
± gives the standard deviation of the averaged measurements.

How the values were obtained:
VINORELBINE = compound: CCC1=C[C@@H]2CN(C1)Cc1c([nH]c3ccccc13)[C@@](C(=O)OC)(c1cc3c(cc1OC)N(C)[C@H]1[C@@](O)(C(=O)OC)[C@H](OC(C)=O)[C@]4(CC)C=CCN5CC[C@]31[C@@H]54)C2 [VINORELBINE]; assay: surviving fraction relative to DMSO-only wells; higher = less growth inhibition; conditions: exposure time: 5 days
Outline: (§1)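 Inhibitors were tested at 0.5, 1, 5, 10, 50, 100, 500 and 1000 nM, applied continuously for five days beginning 24 hours after log-phase tumour cells were seeded at 250–500 per well in 384-well plates. CellTiter-Glo luminescence served as the viability measure, expressed as surviving fraction against the median of DMSO-only wells. Each line, screened three times, was kept only with replicate Pearson r >0.7 and median Z' >0.3.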

SUNITINIB = compound: CCN(CC)CCNC(=O)c1c(C)[nH]c(/C=C2\C(=O)Nc3ccc(F)cc32)c1C [SUNITINIB]; assay: as above; conditions: exposure time: 5 days
Outline: as §1

Row | Test System | surviving fraction (VINORELBINE; 0.5 nM) | surviving fraction (VINORELBINE; 1 nM) | surviving fraction (VINORELBINE; 5 nM) | surviving fraction (VINORELBINE; 10 nM) | surviving fraction (VINORELBINE; 50 nM) | surviving fraction (VINORELBINE; 100 nM) | surviving fraction (VINORELBINE; 500 nM) | surviving fraction (VINORELBINE; 1000 nM) | surviving fraction (SUNITINIB; 0.5 nM) | surviving fraction (SUNITINIB; 10 nM) | surviving fraction (SUNITINIB; 50 nM) | surviving fraction (SUNITINIB; 500 nM) | surviving fraction (SUNITINIB; 1000 nM) | surviving fraction (SUNITINIB; 100 nM) | surviving fraction (SUNITINIB; 1 nM) | surviving fraction (SUNITINIB; 5 nM)
1 | MDAMB453 BREAST | 1.04 ± 0.049 | 1.029 ± 0.004 | 0.387 ± 0.038 | 0.244 ± 0.022 | 0.16 ± 0.034 | 0.116 ± 0.018 | 0.176 ± 0.044 | 0.25 ± 0.048 | 0.982 ± 0.0066 | 1.03 ± 0.026 | 1.022 ± 0.005 | 0.986 ± 0.059 | 0.724 ± 0.047 |  |  | 
2 | MDAMB468 BREAST | 1.02 ± 0.065 | 0.929 ± 0.019 | 0.645 ± 0.025 | 0.379 ± 0.041 | 0.0613 ± 0.007 | 0.0593 ± 0.005 | 0.117 ± 0.016 | 0.177 ± 0.0095 | 0.8 ± 0.046 | 0.927 ± 0.072 | 1.1 ± 0.091 |  |  | 1.04 ± 0.084 |  | 
3 | MFM223 BREAST | 1.13 ± 0.1 | 1.05 ± 0.066 | 0.905 ± 0.094 | 0.512 ± 0.01 | 0.0818 ± 0.0055 | 0.0723 ± 0.011 | 0.0547 ± 0.00076 | 0.0517 ± 0.0023 | 0.75 ± 0.033 | 0.707 ± 0.041 | 1.01 ± 0.11 | 0.398 ± 0.013 | 0.247 ± 0.015 | 0.832 ± 0.058 | 0.758 ± 0.032 | 0.7412 ± 0.002
4 | MG63 BONE | 1.02 ± 0.025 | 1 ± 0.043 | 1.06 ± 0.02 | 1 ± 0.023 | 0.07 ± 0.0095 | 0.0503 ± 0.014 | 0.0683 ± 0.0071 | 0.065 ± 0.0046 | 0.872 ± 0.02 |  | 0.877 ± 0.028 | 0.721 ± 0.025 | 0.637 ± 0.014 | 0.854 ± 0.016 | 0.865 ± 0.034 | 0.876 ± 0.015
5 | MHM BONE | 1.01 ± 0.029 | 0.988 ± 0.029 | 1.022 ± 0.0092 | 1 ± 0.02 | 0.493 ± 0.025 | 0.325 ± 0.029 | 0.22 ± 0.013 | 0.195 ± 0.014 | 0.956 ± 0.038 |  |  | 0.881 ± 0.021 | 0.774 ± 0.021 |  | 0.962 ± 0.021 | 0.9887 ± 0.0061
6 | NCIH441 LUNG | 1.13 ± 0.13 | 1.11 ± 0.059 | 1.02 ± 0.072 | 0.877 ± 0.029 | 0.4817 ± 0.0045 | 0.422 ± 0.041 | 0.497 ± 0.054 | 0.423 ± 0.044 | 0.963 ± 0.039 | 0.952 ± 0.029 | 1.02 ± 0.043 |  | 0.764 ± 0.079 | 0.977 ± 0.079 |  | 
7 | NOS1 BONE | 0.987 ± 0.04 | 1.1 ± 0.081 | 0.978 ± 0.024 | 0.805 ± 0.024 | 0.287 ± 0.047 | 0.263 ± 0.035 | 0.195 ± 0.017 | 0.188 ± 0.016 | 0.762 ± 0.05 | 0.645 ± 0.039 | 0.561 ± 0.029 | 0.167 ± 0.012 | 0.113 ± 0.03 | 0.391 ± 0.027 |  | 
8 | NY BONE | 0.994 ± 0.019 | 0.964 ± 0.026 | 0.924 ± 0.075 | 0.437 ± 0.016 | 0.0393 ± 0.0031 | 0.035 ± 0.006 | 0.0417 ± 0.0074 | 0.0433 ± 0.0075 | 0.904 ± 0.016 | 0.918 ± 0.04 | 0.937 ± 0.01 | 0.696 ± 0.023 | 0.481 ± 0.036 | 0.929 ± 0.019 | 0.855 ± 0.023 | 
9 | OS25HAL BONE | 0.97 ± 0.046 | 0.985 ± 0.021 | 1.02 ± 0.024 | 0.912 ± 0.052 | 0.202 ± 0.02 | 0.0833 ± 0.0083 | 0.0677 ± 0.011 | 0.057 ± 0.007 | 0.886 ± 0.014 | 0.871 ± 0.053 | 0.926 ± 0.038 | 0.767 ± 0.07 | 0.431 ± 0.04 | 0.925 ± 0.02 |  | 
10 | OSHN BONE | 1.07 ± 0.022 | 1.048 ± 0.0086 | 1.09 ± 0.021 | 1.04 ± 0.021 | 0.0367 ± 0.0021 | 0.025 ± 0.001 | 0.026 | 0.0293 ± 0.00058 | 0.9083 ± 0.0045 | 0.8813 ± 0.0055 |  | 0.86 ± 0.019 | 0.42 ± 0.026 | 0.962 ± 0.017 | 0.906 ± 0.0096 | 
11 | PCI30 HEADNECK | 0.994 ± 0.024 | 1.05 ± 0.02 | 0.463 ± 0.054 | 0.228 ± 0.017 | 0.078 ± 0.003 | 0.0933 ± 0.022 | 0.113 ± 0.025 | 0.147 ± 0.025 | 0.949 ± 0.075 | 1.13 ± 0.05 | 1.38 ± 0.064 | 1.2 ± 0.033 | 1.03 ± 0.052 | 1.45 ± 0.19 | 0.936 ± 0.033 | 
12 | RDES SOFT TISSUE | 1.23 ± 0.18 | 1.15 ± 0.28 | 1.19 ± 0.18 | 1.24 ± 0.39 | 0.0793 ± 0.0093 | 0.071 ± 0.011 | 0.039 ± 0.0036 | 0.039 ± 0.005 | 0.851 ± 0.24 | 0.794 ± 0.12 |  | 1.17 ± 0.17 | 0.567 ± 0.099 | 1.08 ± 0.19 | 0.741 ± 0.2 | 0.794 ± 0.11
13 | S68 BREAST | 1.12 ± 0.4 | 0.785 ± 0.22 | 0.995 ± 0.23 | 0.572 ± 0.26 | 0.155 ± 0.034 | 0.143 ± 0.013 | 0.0783 ± 0.015 | 0.0627 ± 0.0081 | 0.716 ± 0.13 | 0.74 ± 0.18 | 1.07 ± 0.098 | 0.709 ± 0.065 | 0.488 ± 0.1 | 0.98 ± 0.13 | 0.674 ± 0.15 | 
14 | SAOS2 BONE | 1.12 ± 0.014 | 1.18 ± 0.066 | 1.07 ± 0.06 | 0.812 ± 0.038 | 0.155 ± 0.0063 | 0.0997 ± 0.0029 | 0.11 ± 0.0081 | 0.104 ± 0.032 | 0.792 ± 0.052 | 0.692 ± 0.073 | 0.985 ± 0.064 | 0.301 ± 0.046 | 0.154 ± 0.0052 | 0.863 ± 0.093 | 0.691 ± 0.088 | 
15 | SCC36 HEADNECK | 1.09 ± 0.15 | 0.927 ± 0.057 | 1.09 ± 0.093 | 0.819 ± 0.059 | 0.161 ± 0.0035 | 0.135 ± 0.026 | 0.0993 ± 0.011 | 0.1 ± 0.024 | 0.754 ± 0.059 | 0.714 ± 0.078 |  | 0.441 ± 0.047 | 0.222 ± 0.021 | 0.872 ± 0.074 | 0.783 ± 0.11 | 0.8 ± 0.02
16 | SCC47 HEADNECK | 1.09 ± 0.13 | 1.06 ± 0.013 | 0.967 ± 0.055 | 0.693 ± 0.044 | 0.231 ± 0.023 | 0.1977 ± 0.0011 | 0.302 ± 0.022 | 0.289 ± 0.0068 | 0.886 ± 0.019 |  | 1.02 ± 0.016 | 0.726 ± 0.022 | 0.502 ± 0.041 |  | 0.9 ± 0.059 | 
17 | SCC90 HEADNECK | 1.04 ± 0.072 | 1.04 ± 0.06 | 1.01 ± 0.12 | 0.616 ± 0.066 | 0.126 ± 0.0029 | 0.099 ± 0.0066 | 0.097 ± 0.01 | 0.106 ± 0.015 |  | 0.887 ± 0.064 |  | 0.819 ± 0.06 | 0.522 ± 0.052 | 1.25 ± 0.17 | 0.814 ± 0.086 | 
18 | SG27 HEADNECK | 1.17 ± 0.16 | 1.09 ± 0.096 | 1.13 ± 0.12 | 1.08 ± 0.15 | 1.03 ± 0.1 | 1.15 ± 0.018 | 1.26 ± 0.08 | 1.33 ± 0.27 |  | 0.744 ± 0.046 | 1.22 ± 0.077 | 1.72 ± 0.17 | 0.81 ± 0.064 | 1.25 ± 0.12 | 0.949 ± 0.026 | 0.922 ± 0.072
19 | SG28 HEADNECK | 1.17 ± 0.22 | 1.04 ± 0.061 | 0.998 ± 0.099 | 0.861 ± 0.13 | 0.589 ± 0.087 | 0.538 ± 0.11 | 0.521 ± 0.016 | 0.542 ± 0.071 | 0.913 ± 0.11 | 0.313 ± 0.042 | 0.893 ± 0.14 | 0.4727 ± 0.0046 | 0.124 ± 0.017 | 0.725 ± 0.044 | 0.789 ± 0.051 | 0.807 ± 0.086
